pIC50: −log10 of the molar value. Values joined by “and” are separate entries in the source; they are usually repeats but may differ in a detail not shown here. Equal values may be shown once.
What was measured:
[1] = Cell viability, MTT assay, HT-29; type: cell-based, human; conditions: human, HT-29 colorectal carcinoma cells, read-out: percentage of cell viability, MTT, HT-29; for viability at 72 h, 10 µM: at 10 µM; for viability at 72 h, 100 µM: at 100 µM
Experimental: (§1) Whenever possible, additional concentrations were tested and IC50 values were determined.
(§2) Human leukemia Jurkat E6.1 T-cell line and K562-cell line were originally obtained from ATCC Collections (Manassas, VA, USA); human HT-29 and HCT116 colorectal carcinoma-cell lines were obtained from ECACC (Porton Down, Porton, UK). Cells were passaged for less than 6 months after and routinely tested for mycoplasma contamination using Mycoalert detection kit (Lonza, Basel, Switzerland). Jurkat, K562, and HT-29 cells were maintained in Roswell Park Memorial Institute (RPMI) 1640 with GlutaMAX™, supplemented with 1% antibiotic mixture (100 µg/mL streptomycin and 100 U/mL penicillin) and 10% heat-inactivated foetal bovine serum (FBS) (all from Gibco, Thermo Fisher Scientific, Paisley, UK). HCT116 cells were maintained in Dulbecco’s Modified Eagle Medium (DMEM) with GlutaMAX™, supplemented with 1% antibiotic mixture (100 µg/mL streptomycin and 100 U/mL penicillin) and 10% heat-inactivated FBS (all from Gibco, Thermo Fisher Scientific, Paisley, UK). Incubation was performed at 37 °C in a 5% CO2 atmosphere. Cells were routinely passaged every 2 or 3 days at 70–90% confluence; TrypLE Express (Gibco, Thermo Fisher Scientific, Paisley, UK) was used as dissociation agent for adherent cells. Trypan blue (Gibco, Thermo Fisher Scientific, Paisley, UK) was used to assess cell viability using the dye exclusion test.
(§3) To assess cell viability, the MTT assay was performed. Jurkat/K562/HT-29/HCT116 cell lines were seeded in triplicate (10,000 cells/well) in 96-well plates with 50 µL of complete medium and incubated at 37 °C, 5% CO2 for 24 h to allow the cells to adhere to the plate (in the case of adherent cells). […] Untreated cells seeded in triplicate were used as control. The blank was performed in triplicate with 100 µL of culture medium. The cells were incubated with the compounds, in triplicate, in 100 µL of total volume, at 37 °C, 5% CO2 for 72 h. […] In suspension cells (Jurkat), 25 µL of MTT were directly added to each well and, after 3 h 30 m of incubation, 100 µL of DMSO were added to solubilize the formazan crystals; in adherent cells (HT-29 and HCT116), the culture medium was removed, 25 µL of MTT were added to each well and, after 3 h 30 m of incubation, upon MTT removal, 100 µL of DMSO were added to solubilize the formazan crystals. After 15 min, the samples absorbance was measured at 570 nm and the percentage of cell viability was determined.

[2] = molecular target: T1, 20S proteasome in Jurkat cell lysates, C-L activity (Homo sapiens, UniProt P28072); test: Proteasome inhibition assay in cell lysates, Jurkat, C-L; conditions: for inhibition at 10 µM: read-out: percentage of proteasome inhibition, C-L, cell lysates Jurkat, at 10 µM; for inhibition at 100 µM: read-out: percentage of proteasome inhibition, C-L, cell lysates Jurkat, at 100 µM
T1 sequence (P28072 35-239 limits assumed): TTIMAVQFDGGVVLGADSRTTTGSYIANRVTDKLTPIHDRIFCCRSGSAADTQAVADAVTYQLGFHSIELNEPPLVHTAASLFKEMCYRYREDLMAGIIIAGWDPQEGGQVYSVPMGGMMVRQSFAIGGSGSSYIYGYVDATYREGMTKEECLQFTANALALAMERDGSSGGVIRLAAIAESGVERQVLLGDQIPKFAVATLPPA
T1 sequence (Q99436 44-277 partner): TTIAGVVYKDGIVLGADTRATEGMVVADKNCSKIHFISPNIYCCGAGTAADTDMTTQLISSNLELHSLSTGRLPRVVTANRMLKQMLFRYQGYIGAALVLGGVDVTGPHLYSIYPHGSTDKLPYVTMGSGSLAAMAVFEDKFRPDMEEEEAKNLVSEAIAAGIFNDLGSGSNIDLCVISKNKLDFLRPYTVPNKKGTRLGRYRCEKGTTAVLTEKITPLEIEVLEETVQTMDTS
Experimental: Cells were obtained from several cultured cell lines: Jurkat, K562, HT-29, and HCT116. Pellets with 20 × 10^6 cells were prepared and washed with cold sterile phosphate buffered saline (PBS), 1×, pH 7.4 (Gibco, Thermo Fisher Scientific, Paisley, UK). […] Cells were resuspended in buffer containing 50 mM TRIS-HCl pH 7.4 (Nzytech, Lisboa, Portugal), 5 mM MgCl2 (≥98% purity, Merck, Hamburg, Germany), 1 mM DTT (Merck, Hamburg, Germany), 2 mM ATP (≥98% purity, Enzo Life Sciences Inc., Farmingdale, NY, USA), and 250 mM saccharose (Merck, Hamburg, Germany). Glass beads (Merck, Hamburg, Germany) equivalent to the volume of the cell suspension were added, and the mixture was vortexed for 2 min at 4 °C. Beads and cell debris were removed using 5 min centrifugation at 1000× g and 4 °C, followed by 20 min of centrifugation at 10,000× g at 4 °C. Cell lysates containing proteasomes were resuspended in “activity buffer” [50 mM TRIS-HCl (pH 7.4), 5 mM MgCl2, 1 mM DTT, 2 mM ATP (≥98% purity, Enzo Life Sciences Inc., Farmingdale, NY, USA), and 500 µM EDTA (≥98% purity, Merck, Hamburg, Germany)]. Protein concentration was determined using the Pierce™ BCA protocol (Thermo Fisher Scientific, Rockford, IL, USA). […] DMSO was added in an equal volume as used for the untreated compounds as a way to assess/control its influence in the assay. Untreated cells were used as control. In each well of a 96-well plate, 25 µL of lysate were seeded in duplicate with 25 µL of the compound to test; in the control, 25 µL of activity buffer were added to the 25 µL of lysate. A blank (50 µL of activity buffer) was added to the wells in quadruplicate. Cell lysates, pre-treated or not with different concentrations of the test compounds, were incubated for 30 min at 37 °C. […] Stock solutions (10 mM) of each substrate were prepared in DMSO, diluted in activity buffer, and 50 µL were added to all wells (final concentration of each substrate = 100 µM), followed by an incubation at 37 °C for 60 min. Samples fluorescence was measured at an excitation wavelength of 360 nm and emission of 465 nm; the fluorescence measures were performed using the GloMax-Multi + Detection System (Promega Corp., Madison, WI, USA). Activity was evaluated in fluorescence units, after being converted to percentage of proteasome inhibition and, whenever possible, expressed as IC50 by plotting the inhibition data of each compound at different concentrations against the log of the concentration of the inhibitor, using the GraphPad Prism software version 7. At least eight different concentrations of the test compounds were used.

[3] = Cell viability, MTT assay, K562; type: cell-based, human; conditions: human, K562 leukemia cells, read-out: percentage of cell viability, MTT, K562; for viability at 72 h, 10 µM: at 10 µM; for viability at 72 h, 100 µM: at 100 µM
Experimental: as §1, §2, §3

[4] = molecular target: T2, 20S proteasome in K562 cell lysates, C-L activity (Homo sapiens, UniProt P28072); test: Proteasome inhibition assay in cell lysates, K562, C-L; conditions: for inhibition at 10 µM: read-out: percentage of proteasome inhibition, C-L, cell lysates K562, at 10 µM; for inhibition at 100 µM: read-out: percentage of proteasome inhibition, C-L, cell lysates K562, at 100 µM
T2 sequence (P28072 35-239 limits assumed): T1 sequence (P28072 35-239 limits assumed)
T2 sequence (Q99436 44-277 partner): T1 sequence (Q99436 44-277 partner)
Experimental: Cells were obtained from several cultured cell lines: Jurkat, K562, HT-29, and HCT116. Pellets with 20 × 10^6 cells were prepared and washed with cold sterile phosphate buffered saline (PBS), 1×, pH 7.4 (Gibco, Thermo Fisher Scientific, Paisley, UK). The preparation of the lysates from several cell lines was performed based on the methodology described by Gavioli et al. [67]. Cells were resuspended in buffer containing 50 mM TRIS-HCl pH 7.4 (Nzytech, Lisboa, Portugal), 5 mM MgCl2 (≥98% purity, Merck, Hamburg, Germany), 1 mM DTT (Merck, Hamburg, Germany), 2 mM ATP (≥98% purity, Enzo Life Sciences Inc., Farmingdale, NY, USA), and 250 mM saccharose (Merck, Hamburg, Germany). Glass beads (Merck, Hamburg, Germany) equivalent to the volume of the cell suspension were added, and the mixture was vortexed for 2 min at 4 °C. Beads and cell debris were removed using 5 min centrifugation at 1000× g and 4 °C, followed by 20 min of centrifugation at 10,000× g at 4 °C. Cell lysates containing proteasomes were resuspended in “activity buffer” [50 mM TRIS-HCl (pH 7.4), 5 mM MgCl2, 1 mM DTT, 2 mM ATP (≥98% purity, Enzo Life Sciences Inc., Farmingdale, NY, USA), and 500 µM EDTA (≥98% purity, Merck, Hamburg, Germany)]. Protein concentration was determined using the Pierce™ BCA protocol (Thermo Fisher Scientific, Rockford, IL, USA). […] DMSO was added in an equal volume as used for the untreated compounds as a way to assess/control its influence in the assay. Untreated cells were used as control. In each well of a 96-well plate, 25 µL of lysate were seeded in duplicate with 25 µL of the compound to test; in the control, 25 µL of activity buffer were added to the 25 µL of lysate. A blank (50 µL of activity buffer) was added to the wells in quadruplicate. Cell lysates, pre-treated or not with different concentrations of the test compounds, were incubated for 30 min at 37 °C. […] Stock solutions (10 mM) of each substrate were prepared in DMSO, diluted in activity buffer, and 50 µL were added to all wells (final concentration of each substrate = 100 µM), followed by an incubation at 37 °C for 60 min. Samples fluorescence was measured at an excitation wavelength of 360 nm and emission of 465 nm; the fluorescence measures were performed using the GloMax-Multi + Detection System (Promega Corp., Madison, WI, USA). Activity was evaluated in fluorescence units, after being converted to percentage of proteasome inhibition and, whenever possible, expressed as IC50 by plotting the inhibition data of each compound at different concentrations against the log of the concentration of the inhibitor, using the GraphPad Prism software version 7. At least eight different concentrations of the test compounds were used.

[5] = molecular target: T3, isolated human 20S proteasome, C-L activity (Homo sapiens, UniProt P28072); test: Proteasome inhibition assay in isolated human 20S proteasomes (Proteasome-Glo), C-L activity; type: biochemical; conditions: mean ± SD
T3 construct: human purified erythrocyte-derived 20S proteasome; purchased Enzo Life Sciences, Inc; host or cells: human erythrocytes (natural source)
From the text: In this assay, the peptide substrates are bound to aminoluciferin (Suc-LLVY-AML for CT-L activity, Z-nLPnLD-AML for C-L, and Z-LRR-AML for T-L), leading the cleavage of these substrates by the proteasome to the release of free aminoluciferin, which is the substrate of the buffer-contained luciferase.
To evaluate human purified erythrocyte-derived 20S proteasome inhibitory activity of the chosen compounds, the Proteasome-Glo™ 3-substrate system (Promega Corporation, Madison, WI, USA) was employed. The Proteasome-Glo™ reagents of the three proteolytic activities were prepared according to the manufacturer’s instructions, aliquoted, and stored at either −20 °C or 4 °C, avoiding freezing–thaw cycles. […] The purified 20S proteasome (Enzo Life Sciences, Inc., Farmingdale, NY, USA) was diluted in HEPES buffer 10 mM, pH 7.4, to a concentration experimentally adjusted to the signal/noise ratio obtained with each particular lot of Proteasome-Glo™ reagent, in order to have a good compromise between sensitivity and linear response. […] All assays were performed in white-walled multiwell plates (Thermo Scientific™ Sterilin™ White Microtiter™ plates, Thermo Fisher Scientific, Paisley, UK) in duplicates. The proteasome solution (25 μL) was added to each well first, then the diluted solutions of the assayed compounds (25 μL), and lastly the Proteasome-Glo™ Reagent (50 μL). […] Reagents were added to the plate well on ice, and the plate was then transferred to the plate luminometer (SpectraMax®, Molecular Devices, LLC, San Jose, CA, USA) set at 37 °C, gently mixed for 30 s, and the measurements were immediately started in kinetic mode, with data collected every 5 min for at least 60 min.
All compounds were dissolved in DMSO at a concentration of 10 mM and stored at −20 °C or 4 °C. Solutions of the test compounds were prepared at their adequate dilutions in 10 mM HEPES buffer pH 7.6 before each experiment.
To calculate the proteasome activity over time, the value of mean relative luminescence units (RLU) of blank wells at each respective time point was subtracted, and then the ratio between mean RLU of the sample and mean RLU of the positive control wells was calculated for each time point and expressed as percentage.

[6] = at 100 µM, Table 2 legend: bortezomib 10 µM
[7] = Table 2 legend: bortezomib 10 µM

Row | SMILES | percentage of proteasome inhibition, C-L, cell lysates Jurkat ([2]; at 10 µM) [%] | percentage of proteasome inhibition, C-L, cell lysates Jurkat [2, 6] | percentage of proteasome inhibition, C-L, cell lysates K562 ([4]; at 10 µM) [%] | percentage of proteasome inhibition, C-L, cell lysates K562 [4, 6] | inhibition at 10 µM [2] [%] | inhibition at 100 µM [2, 7] [%] | inhibition at 10 µM [4] [%] | inhibition at 100 µM [4, 7] [%] | pIC50 [2] | pIC50 [5] | viability at 72 h, 10 µM [1] [%] | viability at 72 h, 100 µM [1] [%] | viability at 72 h, 10 µM [3] [%] | viability at 72 h, 100 µM [3] [%]
1 | Cc1ccc2ccccc2c1CSc1ncnc2c1ncn2C1OC(CO)C(O)C1O (stereo not shown) [Compound 1] |  | 19% |  | 28% | 2.27 | 19.4 | 0 | 28.2 |  |  | 96.7 | 23.3 | 93.1 | 18.2
2 | O=C1c2ccccc2C(=O)c2c(Nc3ccc(S(=O)(=O)N(CCO)CCO)cc3)ccc(O)c21 [Compound 2] |  | 74% |  | 63% | 26.9 | 73.5 | 0 | 63.2 | 4.37 | 5.62 | 79.9 | 65.4 | 86.3 | 
3 | Cc1ccc(/C(=N/NS(=O)(=O)c2ccc([N+](=O)[O-])cc2)Sc2cc(Cl)c(C)cc2S(N)(=O)=O)cc1 [Compound 3] |  | 25% |  | 39% | 0 | 25.4 | 14.2 | 38.8 |  | 4.29 | 100 | 100 | 100 | 100
4 | C#CCCN1CCN(c2ccc(-n3c(=O)ccc4cnc5ccc(-c6ccc(N)nc6)cc5c43)cc2C(F)(F)F)CC1 [Compound 4, 9-(6-Aminopyridin-3-yl)-1-(4-(4-(but-3-yn-1-yl)piperazin-1-yl)-3-(trifluoromethyl)phenyl)benzo[h][1,6]naphthyridin-2(1H)-one] |  | 99% |  |  | 8.16 | 98.9 |  |  | 4.57 | 4.39 | 94.1 | 34.3 |  | 

More lines, main results first:

Row | percentage of proteasome inhibition, C-L, cell lysates Jurkat ([2]; at 10 µM) [%] | percentage of proteasome inhibition, C-L, cell lysates Jurkat [2, 6] | percentage of proteasome inhibition, C-L, cell lysates K562 ([4]; at 10 µM) [%] | percentage of proteasome inhibition, C-L, cell lysates K562 [4, 6] | inhibition at 10 µM [2] [%] | inhibition at 100 µM [2, 7] [%] | inhibition at 10 µM [4] [%] | inhibition at 100 µM [4, 7] [%] | pIC50 [2] | pIC50 [5] | SMILES | viability at 72 h, 10 µM [1] [%] | viability at 72 h, 100 µM [1] [%] | viability at 72 h, 10 µM [3] [%] | viability at 72 h, 100 µM [3] [%]
5 | 92.00 | 94.22% and 94% | 94.99 | 97.19% and 97% |  |  |  |  |  |  | CC(C)C[C@H](NC(=O)[C@H](Cc1ccccc1)NC(=O)c1cnccn1)B(O)O [Bortezomib, bortezomib, reference compound] | 0 | 0 | 0 | 0
6 |  | 36% |  |  | 0 | 36.2 |  |  |  |  | CC(C)c1nc(CN(C)C(=O)N[C@@H](CCN2CCOCC2)C(=O)N[C@H](CC[C@H](Cc2ccccc2)NC(=O)OCc2cncs2)Cc2ccccc2)cs1 [Compound 5, cobicistat, reference compound] | 98.3 | 25.4 |  | 

— paper PMC10458307, “New Scaffolds of Proteasome Inhibitors: Boosting Anticancer Potential by Exploiting the Synergy of In Silico and In Vitro Methodologies” (Pharmaceuticals, 2023)
